The record followed here is US4711877A, “6-pen-vasopressin compounds” (SmithKline Beckman Corporation, priority 1985, dated 1987).

Positions of bridges follow the written chain, without caps; N, C: chain ends. Non-standard residues stand in square brackets, D forms with d. Residues, ends and D or L forms follow the SMILES beside them. Pen = CC(C)(S)[C@H](N)C(=O)O; Mpa = O=C(O)CCS

Assay [1] deals with T1, vasopressin receptor sites (Rattus norvegicus, UniProt P30560).
T1 construct: from tissue; host or cells: rat liver tissue
T1 sequence (P30560 whole entry): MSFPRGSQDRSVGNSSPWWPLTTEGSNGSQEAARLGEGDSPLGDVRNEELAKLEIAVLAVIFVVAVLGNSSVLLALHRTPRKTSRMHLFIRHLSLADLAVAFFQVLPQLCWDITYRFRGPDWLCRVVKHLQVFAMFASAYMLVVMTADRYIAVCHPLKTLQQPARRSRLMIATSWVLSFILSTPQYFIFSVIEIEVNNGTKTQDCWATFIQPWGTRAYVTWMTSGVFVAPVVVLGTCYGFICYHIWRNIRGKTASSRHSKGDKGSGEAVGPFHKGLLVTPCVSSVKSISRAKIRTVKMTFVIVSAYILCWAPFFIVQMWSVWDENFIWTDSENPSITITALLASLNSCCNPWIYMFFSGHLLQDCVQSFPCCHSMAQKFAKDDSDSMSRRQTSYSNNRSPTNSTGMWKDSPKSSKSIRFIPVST
Put plainly: Binding activity in rat liver tissue (KB), protocol of Stassen et al. From the text:
(§1) The binding activity in hog and rat liver tissue, as well as the antagonistic activity in the hydropenic rat, of the compounds according to this invention is illustrated by the following results which were obtained using testing protocols which are described in the literature [F. Stassen, J. Pharmacology and Experimental Therapeutics, 223 50 (1982)]: […]

In assay [2] the target is T2, vasopressin receptor sites (Sus scrofa, UniProt P32307).
T2 construct: from tissue; renal medulla by own knowledge of the cited protocol
T2 sequence (P32307 whole entry): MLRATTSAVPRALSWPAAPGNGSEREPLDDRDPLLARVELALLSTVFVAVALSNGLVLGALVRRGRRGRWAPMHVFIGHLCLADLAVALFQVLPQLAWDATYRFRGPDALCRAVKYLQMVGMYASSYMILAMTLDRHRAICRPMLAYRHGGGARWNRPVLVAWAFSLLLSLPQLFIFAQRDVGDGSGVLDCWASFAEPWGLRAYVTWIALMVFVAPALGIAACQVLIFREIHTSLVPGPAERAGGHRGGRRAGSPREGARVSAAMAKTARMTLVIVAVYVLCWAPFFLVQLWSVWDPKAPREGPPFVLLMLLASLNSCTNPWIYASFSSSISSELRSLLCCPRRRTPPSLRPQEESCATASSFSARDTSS
The assay can be described thus: Binding activity in hog tissue (KB), protocol of Stassen et al.
Description: as §1

In the case of `CCOc1ccc(C[C@H]2NC(=O)CCSSC(C)(C)[C@@H](C(=O)N3CCC[C@H]3C(=O)N[C@@H](CCCNC(=N)N)C(=O)NCC(N)=O)NC(=O)[C@H](CC(N)=O)NC(=O)[C@H](C(C)C)NC(=O)[C@H](Cc3ccccc3)NC2=O)cc1` [Compound A, Mpr--D-Tyr(Et)--Phe--Val--Asn--Pen--Pro--Arg--Gly(NH2)] ([Mpa][dY](Et)FVN[Pen]PRG-NH2; disulfide 1-6), the Kb in assay [1] was determined as 110 nM; in assay [2] it was 190 nM. In turn, `CCOc1ccc(C[C@H]2NC(=O)CCSSC[C@@H](C(=O)N3CCC[C@H]3C(=O)N[C@@H](CCCNC(=N)N)C(=O)NCC(N)=O)NC(=O)[C@H](CC(N)=O)NC(=O)[C@H](C(C)C)NC(=O)[C@H](Cc3ccccc3)NC2=O)cc1` [Compound B, Mpr--D-Tyr(Et)--Phe--Val--Asn--Cys--Pro--Arg--Gly(NH2), reference compound] ([Mpa][dY](Et)FVNCPRG-NH2; disulfide 1-6) displayed a Kb in assay [2] of 9900 nM.
